Experimental data: patent publication US11026943B2, “Aminoquinoline derivatives and uses thereof” (UNIVERSITY OF DELHI, priority 2012, dated 2021)
Several values for one entry are separate records, joined by “and”; a condition that tells them apart may be missing. Equal entries are not always repeated.

Assays:
[1] = tested on: primary cultures of rat mesencephalic DA neurons; assay: 6-OHDA-induced death in primary mesencephalic DA neurons (TH+ count, [3H]DA uptake); format: cell-based; conditions: number of TH+ neurons and DA uptake; 20 μM 6-OHDA for 24 hr
Protocol: Control DA neurons were treated with the above medium in the presence of a dopamine uptake blocker, 10 μM mazindol (Sigma). Cells were then washed with ice-cold Krebs Ringers solution and lysed with 0.5 M NaOH. Radioactivity was quantified by a liquid scintillation counter (Beckman, Fullerton, Calif.).
To prepare primary cultures of DA neurons, the ventral mesencephalon was removed from 14 day gestation Sprague Dawley rat embryo (Charles River, Cambridge, Mass.). Tissues were incubated with 0.01% trypsin in MEM (MEM, Invitrogen) for 10 min at 37° C. and triturated using a constricted Pasteur pipette. DA neurons were plated at 1.0×10^5 cells per 9 mm diameter glass cover slip precoated with 100 μg/ml poly-D-lysine (Sigma, St. Louis, Mo.) and 4 μg/ml laminin (Invitrogen). DA neurons were maintained at 37° C. in a humidified 5% CO2 atmosphere in minimum essential medium supplemented with 10% FBS (Hyclone), 2 mM glutamine and 6.0 g/l glucose. […]
Cells were fixed in 4% paraformaldehyde (PFA) for 20 min, washed and then incubated with blocking buffer [PBS, 10% goat serum (Invitrogen), 0.3% Triton X-100 (Sigma)] for 1 hour. […] Following washes with PBS, appropriate fluorescence-tagged secondary antibodies (Jackson Immunoresearch Laboratories, West Grove, Pa.) were used for visualization. […]

Nurr1 LBD [2] = target: T1, Nurr1 LBD (Mus musculus, UniProt Q06219); assay: Filter binding assay with [3H]-CQ (saturation and competition); conditions: 500 nM [3H]-CQ
Text: The basal level of transcriptional activity was normalized to 1. The bars represent means±SEM from three independent experiments. (FIG. 13C) Effect of Nurr1 specific siRNA on Nurr1 LBD's transactivation activity. […] (FIG. 13D) Human neuroblastoma SK-N-BE(2)C cells were transfected with the N-terminal flag-tagged SRC1 or SRC3 and the C-terminal myc-tagged full-length Nurr1. […] Cell lysates were immunoprecipitated (IP) using anti-flag antibodies and analyzed by immunoblotting (IB) using anti-myc antibodies. […] The fold induction was derived by comparing each luciferase activity to basal level obtained by non-SRC transfection. […] The concentrations (04) are shown next to the arrows. […] Specific binding was calculated as the difference of total and non-specific binding. The insert indicates Scatchard analysis of the specific binding. […] The data represent the average of triplicate from three independent experiments. All graphs, Kd, Ki, and Bmax values were generated using the non-linear regression program Prism version 5.02.
GF/C filters were wet with in binding buffer and placed on a 48-place filter manifold. […] Filters were washed with 4×100 ml binding buffer, dried, and mixed with 5 ml Scintiverse BD (Fisher) and radioactivity was determined in a Beckman LS6000SC liquid scintillation counter. […] The mixture was applied to GF/C filter and filter was washed and counted as described above.

[3] = tested on: LBDs of Nur77, GR, LXR, RXR, PPARα, PPARγ; assay: Target selectivity: GAL4-LBD reporter assays of other nuclear receptors; format: cell-based; conditions: FIG. 19; 30 μM AQ
Protocol: The positive reactivity of these NR constructs was confirmed by the known activators (2 nM dexamethasone, 20 nM retinoic acid, 2 μM GW3965, 50 nM GW7647, and 5 nM GW1929 for GR, RXR, LXR, PPARα, and PPARγ, respectively). The basal level of transcriptional activity was normalized to 1. Bars represent means±SEM from three independent experiments.
(§3) Human neuroblastoma SK-N-BE(2)C cells were maintained in Dulbecco's modified Eagle's medium (DMEM) supplemented with 10% fetal bovine serum. All culture media contained 100 units/ml penicillin and 100 μg/ml streptomycin. For transfection, cells were plated at 1.5×10^5 cells/well in the DMEM media without antibiotic into 24-well plates 1 day prior to transfection. Transfections were carried out by the Lipofectamine plus (Invitrogen) according to the manufacture's protocol. Total DNA amount was 0.5 μg per well with 0.1 μg of pRSV-β-gal as an internal control. 6 hours after transfection, compounds in the DMEM media with 1% charcoal-stripped fetal calf serum was added and incubated overnight. […] Then equal volume of firefly luciferase substrate was added and the luciferase activity was measured using a Luminometer plate reader and normalized for beta-galactosidase activity.

MPTP-treated monkeys = conditions: previous study; cited from earlier work
Nurr1 LBD [4] = target: T1, Nurr1 LBD; assay: Nurr1 LBD GAL4 reporter assay (pSVGAL(DBD)-N(LBD), p8xGAL-Luc) in SK-N-BE(2)C cells; format: cell-based
Text: (§1) The pTH2600LUC reporter construct contains the 2.6 kb upstream sequences of the rat tyrosine hydroxylase gene in front of a firefly luciferase gene in pGL3-basic vector. A Nurr1-expression plasmid, pSV40Nurr1, was kindly provided by Dr Orla M. Conneely at Baylor College of Medicine (Houston, Tex., USA). […] The VP16/SRC1 and VP16/SRC3 hybrid were constructed by inserting the transactivation domain of the VP16 protein upstream of SRC1 and SRC3, respectively. […] The recombinant proteins were purified by Ni-NTA column chromatography (Qiagen) according to the manufacturer's instruction. The integrity of all sequences was verified by DNA sequence analyses.
(§2) Human neuroblastoma SK-N-BE(2)C cells were maintained in Dulbecco's modified Eagle's medium (DMEM) supplemented with 10% fetal bovine serum. All culture media contained 100 units/ml penicillin and 100 μg/ml streptomycin. For transfection, cells were plated at 1.5×10^5 cells/well in the DMEM media without antibiotic into 24-well plates 1 day prior to transfection. Transfections were carried out by the Lipofectamine plus (Invitrogen) according to the manufacture's protocol. Total DNA amount was 0.5 μg per well with 0.1 μg of pRSV-β-gal as an internal control. 6 hours after transfection, compounds in the DMEM media with 1% charcoal-stripped fetal calf serum was added and incubated overnight. Cells from each well were lysed with 100 μl of lysis buffer, which contains 25 mM Tris-phosphate (pH 7.8), 2 mM DTT, 2 mM CDTA (1,2-diaminocyclohexane-N,N,N′,N′-tetraacetic acid), 10% glycerol, and 1% Triton X-100. Then equal volume of firefly luciferase substrate was added and the luciferase activity was measured using a Luminometer plate reader and normalized for beta-galactosidase activity.

PC12 cells = assay: 6-OHDA toxicity in PC12 cells (MTT reduction assay); format: cell-based, rat
Protocol: Cell viabilities were determined by the conventional MTT reduction assay. After incubation for indicated times, cells were treated with the MTT solution (final concentration, 1 mg/ml, Sigma) for 1 h. Formazan grains formed in intact cells were solubilized with MTT Solubilization. Solution containing 10% Triton X-100 plus 0.1 N HCl in anhydrous isopropanol for 24 h and then absorbance at 570 nm was measured with a microplate reader (Molecular Devices, Menlo Park, Calif.).

[5] = tested on: Nurr1 recruitment to TH promoter NL1 and NL3; assay: Chromatin immunoprecipitation in PC12 cells; format: cell-based, rat; conditions: 20 μM AQ or 75 μM CQ for 15 hrs
Protocol: Error bars represent standard deviations.
Cells were washed with PBS, fixed with 1% formaldehyde, lysed, and sonicated according to the manufacturer's instruction (Active Motif). 25 μg of soluble chromatin DNA were co-immunoprecipitated 1 μg of Nurr1 specific antibody (E-20, Santa Cruz) or control antibody (rabbit IgG, santa Cruz). […] Values are shown as fold induction compared to mock treated control cells.

aphakia (ak/ak) mice = assay: Behavioral studies in ak/ak mice (Pole, Challenging Beam, Cylinder, Rotarod) and SN histology; format: in vivo, mouse; conditions: L-DOPA 8 mg/kg i.p. once per day
Protocol: Either 20 mg/kg of AQ (AQ group) or the saline (Saline group) was intraperitoneally injected (I.P.) twice per day for two weeks. 8 mg/kg of L-DOPA (L-DOPA group) in 0.5% DMSO was injected (I.P.) once per day for two weeks. The L-DOPA group was given 12.5 mg/kg benserazide 20 min prior to administration of L-DOPA.
Each ak mouse was randomly assigned into one of three experiment groups, (1) saline group (negative control; n=8), (2) L-DOPA group (positive control; n=8), (3) AQ group (n=10). Each WT or rdl mouse was randomly divided into two groups, (1) saline group (n=8) and (2) AQ group (n=10). Pole Test, Challenging Beam Traversal Test, and Cylinder Test were performed at two time points, immediately and one month after two weeks of either AQ or saline injection. Each mouse ran each task twice. Rota rod test was performed immediately after two weeks of either drug or saline injection. Acclimation and data recording process were identical to the rat study described above. All tasks were performed as described previously^11 and the short description of each task is as follows.
A vertical wooden pole 50 cm in length and 1 cm in diameter was used for Pole Test. Each mouse was gently placed head upwards on top of the pole which is placed on each animal's home cage. Each mouse ran tree trials per session during 2 training sessions. On the testing day, mice ran three trials. Two parameters (the meantime to orient downward and the total travel mean time) were used for the statistical analysis.
A 1 m length of plastic beam was used for Challenging Beam Traversal Test. The starting width of the beam was 3.5 cm and it gradually narrowed in 1 c increments to 0.5 cm at the other end site of the beam. Animals were trained to walk from the wide end to the other end for 2 sessions, three trials per session before testing. A mesh grid was removed during the training period. On the testing day, a mesh grid (1 cm square) covering the beam surface was equipped leaving a […] room between the grid and the beam surface. On the testing day, mice ran three trials. Two parameters (the mean number of steps taken by each animal and the mean time to traverse across three trials) were collected and used for statistical analysis.
A small transparent cylinder (height, 15.5 cm; diameter, 12.7 cm) was used to evaluate somatosensory motor function. Mice were placed in the cylinder and their rears were counted for 5 minutes. The forelimb touching the Plexiglas wall (a vertical movement) is defined as a full rear. The mean number of forelimb use was calculated for the statistical analysis. […]
The Rota rod equipment (Med-Associates, Inc, Albans, Vt., USA) was used to measure motor coordination. […] The mean latency to fall off from the Rota rod was measured for the statistical analysis. […]

Nurr1 = target: T2, Nurr1 (Mus musculus, UniProt Q06219); assay: High-throughput cell-based screen of Nurr1-dependent TH promoter activation; conditions: library of 960 FDA-approved drugs
T2 construct: Full-length mouse Nurr1cDNA was amplified by RT-PCR from pSV40Nurr1; expressed in transfected cells; host or cells: SK-N-BE(2)C human neuroblastoma cells
Text: The pTH2600LUC reporter construct contains the 2.6 kb upstream sequences of the rat tyrosine hydroxylase gene in front of a firefly luciferase gene in pGL3-basic vector. A Nurr1-expression plasmid, pSV40Nurr1, was kindly provided by Dr Orla M. Conneely at Baylor College of Medicine (Houston, Tex., USA). Full-length mouse Nurr1cDNA was amplified by RT-PCR from pSV40Nurr1 using forward 5′-[sequence]-3′ (SEQ ID NO: 1) and reverse 5′-[sequence]-3′ (SEQ ID NO: 2) oligonucleotides.
as §3

full-length Nurr1 = target: T3, full-length Nurr1 (Mus musculus, UniProt Q06219); assay: Full-length Nurr1 reporter assay (p4xNL3-Luc) in SK-N-BE(2)C cells; format: cell-based; conditions: dose-dependent, maximal
T3 construct: Full-length mouse Nurr1cDNA was amplified by RT-PCR from pSV40Nurr1; expressed in transfected cells; host or cells: SK-N-BE(2)C human neuroblastoma cells
Text: as §1
as §2, with “6 hours after transfection, compounds in the DMEM media with 1% charcoal-stripped fetal calf serum was added and incubated overnight. Cells from each well were lysed with 100 μl of lysis buffer, which contains 25 mM Tris-phosphate (pH 7.8), 2 mM DTT, 2 mM CDTA (1,2-diaminocyclohexane-N,N,N′,N′-tetraacetic acid), 10% glycerol, and 1% Triton X-100.” left out

T1 sequence (Q06219 328-598): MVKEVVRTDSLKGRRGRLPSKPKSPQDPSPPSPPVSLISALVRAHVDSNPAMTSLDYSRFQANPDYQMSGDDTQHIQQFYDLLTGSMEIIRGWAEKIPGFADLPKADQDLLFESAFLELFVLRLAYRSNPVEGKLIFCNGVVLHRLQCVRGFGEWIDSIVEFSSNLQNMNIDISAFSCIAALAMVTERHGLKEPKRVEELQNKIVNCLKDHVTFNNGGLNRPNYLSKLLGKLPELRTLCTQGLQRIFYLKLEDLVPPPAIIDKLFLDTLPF
T2 sequence (Q06219 whole entry): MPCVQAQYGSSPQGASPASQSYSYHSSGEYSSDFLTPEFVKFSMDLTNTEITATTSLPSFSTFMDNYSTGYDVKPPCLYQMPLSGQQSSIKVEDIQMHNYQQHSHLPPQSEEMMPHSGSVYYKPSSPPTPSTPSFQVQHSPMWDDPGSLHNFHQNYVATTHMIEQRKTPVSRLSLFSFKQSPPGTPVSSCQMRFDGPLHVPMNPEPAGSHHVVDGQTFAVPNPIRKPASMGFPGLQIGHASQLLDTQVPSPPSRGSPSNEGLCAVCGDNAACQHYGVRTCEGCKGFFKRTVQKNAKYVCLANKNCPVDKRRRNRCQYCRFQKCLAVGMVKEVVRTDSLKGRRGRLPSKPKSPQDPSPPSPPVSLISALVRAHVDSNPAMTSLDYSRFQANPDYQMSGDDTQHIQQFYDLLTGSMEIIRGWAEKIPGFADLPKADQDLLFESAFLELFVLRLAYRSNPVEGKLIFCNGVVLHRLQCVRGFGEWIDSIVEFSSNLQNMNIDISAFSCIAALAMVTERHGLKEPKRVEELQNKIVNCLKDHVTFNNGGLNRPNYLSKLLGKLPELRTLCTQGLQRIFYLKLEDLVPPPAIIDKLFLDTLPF
T3 sequence (Q06219 whole entry): as above

Structure (SMILES): CCN(CC)CCCC(C)Nc1ccnc2cc(Cl)ccc12 (stereo not drawn) [CQ, chloroquine]
- 6-OHDA-induced death in primary DA neurons [1]: significantly inhibit
- Ki (Nurr1 LBD [2]): 0.088 µM
- transcriptional activity of other nuclear receptors [3]: unable to induce
- MPTP-induced parkinsonian motor abnormalities (MPTP-treated monkeys): protected them from MPTP-induced parkinsonian motor abnormalities
- EC50 (Nurr1 LBD [4]; read-out: EC50 Nurr1 LBD-based reporter activity): ~60 µM and ~50 µM
- neuroprotective effect in PC12 cells (PC12 cells): neuroprotective effect
- Nurr1 recruitment to NL1 and NL3 sites of the TH promoter [5]: recruited to both NL1 and NL3 sites

Structure (SMILES): N[C@@H](Cc1ccc(O)c(O)c1)C(=O)O [L-DOPA]
- rearing activity in Cylinder test (aphakia (ak/ak) mice): dramatically induced rearing activity

Structure (SMILES): O=C(OCC(O)CO)c1ccccc1Nc1ccnc2cc(Cl)ccc12 (stereo not drawn) [glafenine]
- screen outcome (Nurr1): hit compounds
- luciferase reporter activity, fold activation (full-length Nurr1): approximately 1.6 fold

Structure (SMILES): COc1cc(NC(C)CCCN)c2ncccc2c1 (stereo not drawn) [primaquine]
- Ki, competition with [3H]-CQ for binding to Nurr1-LBD (Nurr1 LBD [2]): unable to compete
- transactivation of Nurr1 LBD / Nurr1 transcriptional function (Nurr1 LBD [4]; wide range of concentrations, FIG. 18): couldn't enhance the Nurr1 transcriptional function
